The results in this text go back to ChEMBL document CHEMBL3351698, “Melleolides induce rapid cell death in human primary monocytes and cancer cells” (Bioorg Med Chem, 2014).

Activity calls are given as the source filed them. The calls are words filed in the database; no cut-off is given here. Starred links: 1 amine or outer side, 2 acyl side, 3 side chain; linkers in the order of their positions; H or OH if unused. Positions of bridges follow the written chain, without caps; N, C: chain ends. Non-standard residues stand in square brackets, D forms with d. Residues, ends and D or L forms follow the SMILES beside them. Chains are numbered I, II in the order given. Actinocin(9to1) = Cc1c2oc3c(C)ccc(C(=O)[*:1])c3nc-2c(C(=O)[*:2])c(N)c1=O; NMeV = CN[C@H](C(=O)O)C(C)C; Sar = CNCC(=O)O Some results are limits rather than exact numbers.

Assay [1] concerns HeLa. Description: Cytotoxicity against human HeLa cells assessed as reduction in cell viability at 25 uM after 18 hrs by inverse MTT assay. The format is functional, cell-based. (Tetrazolium dyes change colour on reduction, which living cells bring about.)
For assay [2], the system named is Monocyte. Description: Cytotoxicity against human primary monocytes assessed as reduction in cell viability at 25 uM after 18 hrs by inverse MTT assay. It is filed as functional.
In assay [3] the test system is Monocyte. Description: Cytotoxicity against human primary monocytes assessed as reduction in cell viability at 25 uM after 2 to 5 hrs by inverse MTT assay. It is filed as functional.
The subject of assay [4] is HeLa. Description: Cytotoxicity against human HeLa cells assessed as reduction in cell viability at 25 uM after 2 to 5 hrs by inverse MTT assay. It is filed as functional, cell-based.
In a further assay the test system is MONO-MAC-6. Description: Cytotoxicity against human MONO-MAC-6 cells after 24 hrs by MTT assay. The format is functional, cell-based. The conditions noted are these: MONO-MAC-6, 24 h.
The subject of assay [5] is Monocyte. Description: Induction of cell death in human primary monocytes at 0.1 to 10 uM after 4 hrs by LDH release assay. It is filed as functional, cell-based. A general note: Release of lactate dehydrogenase indicates damage to the cell membrane.
The test system of assay [6] is HeLa. Description: Cytotoxicity against human HeLa cells after 24 hrs by MTT assay. The format is functional, cell-based.
Assay [7] in a line: Cytotoxicity against human primary monocytes after 24 hrs by MTT assay. The format is functional. The conditions noted are these: Monocyte.
The subject of a further assay is K562. Description: Cytotoxicity against human K562 cells after 24 hrs by MTT assay. The format is functional, cell-based. The conditions noted are these: K562, 24 h.
The test system of a further assay is THP-1. Description: Cytotoxicity against human THP1 cells after 24 hrs by MTT assay. It is filed as functional, cell-based. The conditions noted are these: THP-1, 24 h.
Assay [8] can be described thus: Reduction in metabolic activity in mitochondria isolated from human MONO-MAC-6 cells after 3 hrs at 10 uM by MTT assay. It is filed as functional.
The test system of assay [9] is Monocyte. Description: Induction of morphological changes in human primary monocytes assessed as plasma membrane rupture at 5 uM after 1 hr by light microscopy. The format is functional, cell-based.
Assay [10] has as its system HeLa. Description: Cytotoxicity against human HeLa cells assessed as reduction in cell viability at 5 uM after 2 hrs by inverse MTT assay. The format is functional.
The subject of assay [11] is Monocyte. Description: Induction of necrosis in human primary monocytes at 5 uM by PE Annexin V and 7-aminoactinomycin staining based flow cytometry. The format is functional, cell-based. On the technique in general: In flow cytometry, cells or beads pass a laser one at a time.
Assay [12] relates to Monocyte. Description: Induction of apoptosis in human primary monocytes at 5 uM by PE Annexin V and 7-aminoactinomycin staining based flow cytometry. The format is functional, cell-based.
In assay [13] the test system is Monocyte. Description: Induction of morphological changes in human primary monocytes assessed as blebs formation at 5 uM after 1 hr by light microscopy. The format is functional, cell-based.
The nature of assay [14]: Reduction in metabolic activity in mitochondria isolated from human MONO-MAC-6 cells after 3 hrs up to 10 uM by MTT assay. Further details: scale not given: the % may be the effect or the level left. The format is functional.
Assay [15] has as its system Monocyte. Description: Induction of necrosis in human primary monocytes at 5 uM after 1 to 3 hrs by light microscopy. It is filed as functional, cell-based.
Assay [16] has as its system Monocyte. Description: Induction of morphological changes in human primary monocytes assessed as blebs formation at 5 uM after 15 mins by light microscopy. It is filed as functional, cell-based.
Assay [17] can be described thus: Cytotoxicity against human primary monocytes assessed as reduction in cell viability at 5 uM after 2 hrs by inverse MTT assay. The format is functional, Monocyte.
Assay [18] concerns Monocyte. Description: Cytotoxicity against human primary monocytes assessed as reduction in cell viability at 1 uM after 18 hrs by inverse MTT assay. The format is functional.
Assay [19] deals with HeLa. Description: Cytotoxicity against human HeLa cells assessed as reduction in cell viability at 1 uM after 2 to 5 hrs by inverse MTT assay. The format is functional, cell-based.
Assay [20] concerns HeLa. Description: Cytotoxicity against human HeLa cells assessed as reduction in cell viability at 1 uM after 18 hrs by inverse MTT assay. The format is functional, cell-based.
The test system of assay [21] is Monocyte. Description: Cytotoxicity against human primary monocytes assessed as reduction in cell viability at 1 uM after 2 to 5 hrs by inverse MTT assay. The format is functional.
Assay [22] deals with Monocyte. Description: Cytotoxicity against human primary monocytes up to 1 uM after 24 hrs by MTT assay. The format is functional.
Assay [23] deals with Monocyte. Description: Induction of apoptosis in human primary monocytes assessed as nuclear fragmentation at 3 uM after 3 hrs by light microscopy. The format is functional, cell-based.
Assay [24] has as its system HeLa. Description: Cytotoxicity against human HeLa cells at 0.001 to 1 uM after 24 hrs by MTT assay. It is filed as functional, cell-based.
Assay [25] has as its system Monocyte. Description: Induction of necrosis in human primary monocytes at 3 uM by PE Annexin V and 7-aminoactinomycin staining based flow cytometry. It is filed as functional, cell-based.
Assay [26] concerns Monocyte. Description: Cytotoxicity against human primary monocytes assessed as reduction in cell viability at 3 uM after 18 hrs by inverse MTT assay. The format is functional.
Assay [27] deals with Monocyte. Description: Cytotoxicity against human primary monocytes assessed as reduction in cell viability at 3 uM after 2 hrs by inverse MTT assay. The format is functional.
Assay [28] deals with Monocyte. Description: Induction of apoptosis in human primary monocytes at 3 uM by PE Annexin V and 7-aminoactinomycin staining based flow cytometry. The format is functional, cell-based.
The subject of assay [29] is Monocyte. Description: Induction of apoptosis in human primary monocytes assessed as apoptotic bodies formation at 3 uM after 3 hrs by light microscopy. It is filed as functional, cell-based.
In assay [30] the test system is HeLa. Description: Cytotoxicity against human HeLa cells assessed as reduction in cell viability at 3 uM after 18 hrs by inverse MTT assay. It is filed as functional, cell-based.
The test system of assay [31] is HeLa. Description: Cytotoxicity against human HeLa cells assessed as reduction in cell viability at 3 uM after 2 hrs by inverse MTT assay. It is filed as functional, cell-based.
Assay [32] concerns Monocyte. Description: Cytotoxicity against human primary monocytes at 0.001 to 1 uM after 24 hrs by MTT assay. The format is functional.
Assay [33] deals with Monocyte. Description: Induction of cell death in human primary monocytes at 3 uM after 4 hrs by LDH release assay. It is filed as functional, cell-based.

As for `C[C@@H]1C[C@@H]([C@H](O)CC2CC(=O)NC(=O)C2)C(=O)[C@@H](C)C1`, the result in the assay with HeLa [1] and in the assay with Monocyte [2] was Active. Also, the result with Monocyte [3] and in the assay with HeLa [4] was inactive.

For the molecule `COc1cc(O)c(C(=O)O[C@@H]2C[C@]3(C)[C@H]4[C@@H](O)C(C)(C)C[C@@]4(O)C=C(CO)[C@]23O)c(C)c1Cl` [MELLEOLIDE D], the 50% effective concentration (EC50) (usually the concentration giving half of the maximal effect) with MONO-MAC-6 was 48.6 µM; with HeLa [6], > 100 µM; in assay [7], 60.7 µM; in the assay with K562 it was > 100 µM; in the assay on THP-1 it was > 100 µM. In the assay with Monocyte [5], the outcome was inactive.

With `COc1cc(C)c(C(=O)O[C@@H]2C[C@]3(C)[C@H]4CC(C)(C)C[C@H]4C=C(C=O)[C@]23O)c(O)c1` [ARMILLARIN], the EC50 stood at 6.6 µM in the assay on MONO-MAC-6; 16.7 µM in the assay on HeLa [6]; 43.2 µM in assay [7]; 23.7 µM in the assay with K562; 4.8 µM in the assay with THP-1.

`COc1cc(O)c(C(=O)O[C@@H]2C[C@]3(C)[C@H]4CC(C)(C)C[C@H]4C=C(C=O)[C@]23O)c(C)c1Cl` [ARMILLARIDIN]: the EC50 with MONO-MAC-6 turned out to be 5.6 µM; in the assay on HeLa [6], 9.2 µM; in assay [7], 12.3 µM; with K562, 8.9 µM; in the assay with THP-1, 4.5 µM.

As for `N#CC(C#N)=NNc1cccc(Cl)c1`, the result in [8] was Active.

Regarding `Cc1cc(O)cc(O)c1C(=O)O[C@@H]1C[C@@]2(C)C1=C(C=O)[C@@H](O)[C@@H]1CC(C)(C)C[C@@H]12` [DEHYDROARMILLYLORSELLINATE], the outcome with Monocyte [9], with Monocyte [11], in the assay on Monocyte [13], in the assay with Monocyte [15], in the assay on Monocyte [16] and in the assay on Monocyte [5] was Active. Also, the values for the Activity (in the assay with HeLa [10]; in assay [14]; in assay [17]) were 40%, 50% and 40%, respectively. The result in the assay on Monocyte [12] was inactive. Besides, the EC50 turned out to be 4.2 µM with MONO-MAC-6; 1.6 µM with HeLa [6]; 2.3 µM in [7]; 5 µM in the assay with K562; 3 µM with THP-1.

For the molecule `Cc1c2oc3c(C)ccc(C(=O)N[C@@H]4C(=O)N[C@H](C(C)C)C(=O)N5CCC[C@H]5C(=O)N(C)CC(=O)N(C)[C@@H](C(C)C)C(=O)O[C@@H]4C)c3nc-2c(C(=O)N[C@@H]2C(=O)N[C@H](C(C)C)C(=O)N3CCC[C@H]3C(=O)N(C)CC(=O)N(C)[C@@H](C(C)C)C(=O)O[C@@H]2C)c(N)c1=O` (I: T[dV]P[Sar][NMeV] / II: T[dV]P[Sar][NMeV]; ester I:1-I:C, II:1-II:C; linker I:N-II:N via Actinocin(9to1)), the outcome in the assay with Monocyte [18] and with HeLa [20] was Active. Also, the outcome in the assay with HeLa [19] and in the assay with Monocyte [21] was inactive.

For the molecule `COc1cc(O)c(C(=O)O[C@@H]2C[C@@]3(C)C2=C(C=O)[C@@H](O)[C@@H]2CC(C)(C)C[C@@H]23)c(C)c1Cl` [ARNAMIAL], the EC50 in the assay on MONO-MAC-6 came out at 3.2 µM; in the assay with HeLa [6], 4.9 µM; in [7], 3.8 µM; in the assay with K562, 2.3 µM; with THP-1 it was 2.9 µM.

For the molecule `COc1cc(C)c(C(=O)O[C@@H]2C[C@@]3(C)C2=C(C=O)[C@@H](O)[C@@H]2CC(C)(C)C[C@@H]23)c(O)c1`, the EC50 was 2.9 µM in the assay with MONO-MAC-6; 12.3 µM with HeLa [6]; 3.1 µM in assay [7]; 4.1 µM with K562; 2.4 µM in the assay on THP-1.

Consider `CC[C@H](C)[C@H](NC(=O)[C@H]1CCCCN1C)C(=O)N(C)[C@H](CCc1nc(C(=O)N[C@@H](Cc2ccccc2)C[C@H](C)C(=O)O)cs1)C(C)C`, for which the response in the assay with MONO-MAC-6 was half-maximal at 0.03 µM (EC50). Also, in the assay on Monocyte [22], the result was inactive.

In the case of `CN[C@@H]1C[C@H]2O[C@@](C)([C@@H]1OC)n1c3ccccc3c3c4c(c5c6ccccc6n2c5c31)C(=O)NC4`, the outcome in the assay on Monocyte [23], with HeLa [24], in the assay with Monocyte [26], with Monocyte [28], with Monocyte [29] and in the assay on HeLa [30] was Active. For the same molecule, the outcome with Monocyte [33] was Active. In addition, the result in the assay on Monocyte [25], with Monocyte [27], in the assay with HeLa [31] and in the assay on Monocyte [32] was inactive.
